Tests used:
Saccharomyces cerevisiae [1] = assay: DNA damaging activity against wild type (Rad+) yeast assessed as drug level required to produce 12 mm zone of inhibition; type: functional
Saccharomyces cerevisiae [2] = assay: DNA damaging activity against DNA repair-deficient RS 322YK (rad 52Y) yeast assessed as drug level required to produce 12 mm zone of inhibition; type: functional
Prolyl endopeptidase = Prolyl endopeptidase (Elizabethkingia meningoseptica, UniProt P27028); assay: Inhibition of Flavobacterium meningosepticum […]
Chain of Prolyl endopeptidase (P27028 21-705 limits assumed): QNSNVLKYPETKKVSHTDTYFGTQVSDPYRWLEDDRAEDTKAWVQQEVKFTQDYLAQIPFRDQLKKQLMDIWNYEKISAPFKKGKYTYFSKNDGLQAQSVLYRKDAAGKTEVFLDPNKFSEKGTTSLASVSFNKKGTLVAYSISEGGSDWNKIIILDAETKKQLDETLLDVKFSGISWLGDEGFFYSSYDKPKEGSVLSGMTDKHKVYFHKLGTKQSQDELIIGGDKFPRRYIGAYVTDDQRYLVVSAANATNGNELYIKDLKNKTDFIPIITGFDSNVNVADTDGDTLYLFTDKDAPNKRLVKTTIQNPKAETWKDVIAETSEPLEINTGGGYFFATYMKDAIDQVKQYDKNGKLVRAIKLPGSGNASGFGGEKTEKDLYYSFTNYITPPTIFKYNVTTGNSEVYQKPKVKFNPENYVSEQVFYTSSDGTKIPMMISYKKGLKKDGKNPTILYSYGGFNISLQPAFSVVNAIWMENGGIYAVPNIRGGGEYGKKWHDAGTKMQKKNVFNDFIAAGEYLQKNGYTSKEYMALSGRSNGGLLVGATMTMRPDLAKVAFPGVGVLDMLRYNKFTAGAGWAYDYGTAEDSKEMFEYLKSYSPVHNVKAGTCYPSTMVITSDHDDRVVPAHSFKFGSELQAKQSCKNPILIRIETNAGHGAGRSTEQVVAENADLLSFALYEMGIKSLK

SMILES | IC12 (Saccharomyces cerevisiae [1]) | IC12 (Saccharomyces cerevisiae [2]) | IC50 (Prolyl endopeptidase)
CC(=O)OC[C@@]12[C@H](OC(C)=O)[C@H]3[C@@H](OC(C)=O)[C@@H](C)C[C@]3(OC(C)=O)C(=O)[C@@]3(C)OC(C)(C)[C@@H](C=C[C@H]1OC(=O)c1ccccc1)[C@H]23 | 1090 µg/mL | 750 µg/mL | –
CC(=O)OC[C@@]12[C@H](OC(C)=O)[C@H]3[C@@H](OC(C)=O)[C@@H](C)C[C@]3(O)C(=O)[C@@]3(C)OC(C)(C)[C@@H](C=C[C@H]1OC(=O)c1ccccc1)[C@H]23 | – | – | 16.9 µM
CC[C@@]1(O)C(=O)OCc2c1cc1n(c2=O)Cc2cc3ccccc3nc2-1 [CAMPTOTHECIN] | 75 µg/mL | 12 µg/mL | –
